Key:
Assay type in all cases: cell-based, rat
Raf (Ser259) = assay: Western blot of Raf phosphorylation in H4IIE cells; conditions: 6 min, one experiment
Experimental: (§1) Tissue culture media, antibiotics, fetal bovine serum (FBS) and Nunc tissue culture plates were purchased from Invitrogen Canada Inc. (Burlington, Ontario, Canada, L7P 1A1). Insulin (Sigma-Aldrich Canada Ltd., Oakville, Ontario, Canada, L6H 6J8) was dissolved in water and added directly to cells at a concentration of 250 nM unless otherwise indicated. The BWE was prepared and analyzed as described in Example 1. Two μL of the BWE were added directly to cells unless otherwise indicated. This amount was chosen on the basis of equivalence to insulin. Myo-inositol (Sigma-Aldrich Canada Ltd.) and D-chiro-inositol (Industrial Research Ltd., Wellington, New Zealand) were dissolved in water at an equal concentration to the amounts present in the BWE (Table 3) and 2 μL of each solution (0.1% v/v final concentration) was added directly to cells.
(§2) Rat H4IIE hepatoma cells (American Type Culture Collection, CRL 1548) were cultured following the method disclosed by Yau et al., (1998, Eur. J. Biochem. 253: 91-1). The H4IIE cells were maintained in α-modified Eagle's media containing 10% FBS, 2 mM glutamine, 25 μg·mL^−1 streptomycin and 25 units·mL^−1 penicillin. Cells were plated and grown to 70% confluence. All cells were placed into serum-free medium for 72 h before addition of stimulating agents to ensure entry into a quiescent state.
(§3) Cultures of quiescent H4IIE cells or quiescent FAO cells were placed into 12-well culture dishes containing 2 mL serum-free medium, and then stimulated by direct addition of the inhibitors listed in Table 1 (volumes of additions were 10 μL or less) without replacing the medium. […] The cells in 12-well culture dishes were incubated with stimulating agents for 6 minutes and rinsed with phosphate buffered saline (PBS; 0.9% NaCl, 0.1 M Na3PO4, pH 7.1).
(§4) Cellular protein extracts were prepared by addition of 200 μL 2×SDS/gel loading buffer (0.125 M Tris pH 6.8, 2% SDS, 10% glycerol) to H4IIE cells in 12-well culture dishes. The samples were briefly sonicated, and protein content measured using the BCA protein assay kit. Aliquots containing equal amounts of protein were mixed with bromophenol blue (0.5% (w/v) final concentration) and 2-mercaptoethanol (5% (v/v) final concentration), heated at 95° C. and loaded onto 7.5% or 10% polyacrylamide gels. […] Primary antibodies (diluted 1:1000 in 3% (w/v) BSA) were incubated with the membrane for 60 min at 22° C. Membranes were subsequently washed four times and incubated for an additional 60 min at 1 8-22° C. in 1% (w/v) BSA-TBST with diluted HRP-coupled secondary antibody (1:10 000). HRP was detected using the ECL chemiluminescent system after the membranes had been washed four times.
(§5) Quantification of data obtained on film (Kodak X-omat) was accomplished with a GS800 imaging densitometer (Bio-Rad Laboratories) under nonsaturating conditions with local background subtraction. Although multiple exposures were acquired to ensure the absence of film saturation, the experimental figures typically show longer exposures selected specifically for visual presentation and not necessarily used for data analysis. Graphical data are presented as means±SE for a minimum of three replicate samples.

[1] = tested on: p42/44 MAPK (Thr202/Tyr204); assay: Western blot of MAPK phosphorylation in H4IIE cells; conditions: for p42/44 P-MAPK (Thr202/Tyr204) phosphorylation, stimulation (fold) relative to the control / phosphorylation of MAPK, stimulation (fold) relative to the control (Table 6): 6 min, one experiment; for effect of the inhibitor on insulin- and BWE-stimulated phosphorylation of MAPK: preincubation with inhibitor, then insulin or BWE for 6 minutes
Experimental: as §1, with “This amount was chosen on the basis of equivalence to insulin.” left out
as §2, §3, §4
as §5, with “samples. […]” for “samples.”

PDK-1 (Ser241) = assay: Western blot of PDK-1 phosphorylation in H4IIE cells; conditions: 6 min, one experiment
Experimental: as §1, §2, §3, §4, §5

H4IIE cells = assay: 3H-deoxyglucose uptake by H4IIE cells; conditions: H4IIE cells; pre-incubated with inhibitor, then insulin
Experimental: Tissue culture media, antibiotics, fetal bovine serum (FBS) and Nunc tissue culture plates were purchased from Gibco-BRL (division of Invitrogen Canada Inc.). Insulin (Sigma-Aldrich Canada Ltd.) was dissolved in water and added directly to cells at a final concentration of 10^−6 M. The buckwheat extract was prepared and analyzed as in Example 1. Two μL of the buckwheat extract were added directly to cells unless otherwise indicated. Myo-inositol (Sigma Aldrich Canada Ltd.) and D-chiro-inositol (Industrial Research Ltd.) were dissolved in water at an equal concentration to the amounts present in the BWE (Table 3) and 2 μL of each solution was added directly to cells.
as §2, with “as described in Example 3. Briefly,” for “following the method disclosed by Yau et al., (1998, Eur. J. Biochem. 253: 91-1). The H4IIE”, “50” for “25”, “50 μg·mL^−1” for “25 units·mL^−1”
^3H-deoxyglucose uptake was assayed using the method disclosed by Harrison et al. (1990, J. Biol. Chem. 265(10):5793-5801). Quiescent H4IIE cells, in 24-well culture dishes containing 1 mL serum-free medium, were washed three times with physiological salt solution (PSS) ([…], pH 7.4). Cells were placed into 0.5 mL PSS and pre-incubated with inhibitors for 10 minutes prior to the 20 minute stimulation with treatments (insulin, BWE, D-CI, MI). For all experiments, insulin was added at a concentration of 10^−6 M whereas 2 μL volumes of the BWE, D-CI, or MI (0.4% v/v final concentration) were added to cells unless otherwise indicated in figures. Sugar uptake was initiated by the addition of ^3H-deoxyglucose to a final assay concentration of 0.1 mM glucose (1 mCi/mL) and the cells were subsequently incubated for 5 minutes at 37° C. After two rapid washes with ice-cold PSS (0.5-1 mL/well), the cells were solubilized with 0.4 mL of 0.1% SDS, and ^3H was detected in 3 mL of EcoLume scintillant (MP Biomedicals Inc., Costa Mesa, Calif., USA, 92626).
Statistical significance between treatments was determined by one-way ANOVA and by Duncan's multiple range test for means testing (SAS v.9.1, SAS Institute Inc., Cary, N.C.). […] Data are expressed as the mean±SE.
Since insulin has the same effect, we compared the ability of BWE, insulin and two insulin-mimetic compounds (D-CI and MI) to stimulate glucose uptake by H4IIE hepatoma cells. […] Radio-labelled deoxyglucose was added to the medium and glucose uptake was determined by the detection of ^3H in cells.
Fractions (˜1.0 ml) from each solvent extraction were collected and assayed for their effects on MAPK activation as described in Example 3. The effects of selected fractions, alone or in combination with insulin, on the uptake of labelled glucose were assessed following the methods described in Example 4. […] The effects of the solvent fractions on H4IIE cells were assessed with 20-min exposure periods after which, sugar uptake was initiated by the addition of ^3H-deoxyglucose to a final assay concentration of 0.1 mM glucose (1 mCi/mL) and the cells were subsequently incubated for 5 minutes at 37° C. After two rapid washes with ice-cold PSS (0.5-1 mL/well), the cells were solubilized with 0.4 mL of 0.1% SDS, and ^3H was detected in 3 mL of EcoLume scintillant. […]

[2] = BWE-stimulated, 15-min preincubation with the inhibitor (None = BWE alone)
[3] = insulin-stimulated, 15-min preincubation with the inhibitor (None = insulin alone)
[4] = BWE treatment, 15-min preincubation with PKA/PKC inhibitor (None = BWE alone)
[5] = insulin treatment, 15-min preincubation with PKA/PKC inhibitor (None = insulin alone)

Compound | Raf (Ser259) phosphorylation, stimulation (fold) relative to the control (Raf (Ser259); [2]) [fold] | Raf (Ser259) phosphorylation, stimulation (fold) relative to the control (Raf (Ser259); [3]) [fold] | p42/44 P-MAPK (Thr202/Tyr204) phosphorylation, stimulation (fold) relative to the control [1, 2] [fold] | p42/44 P-MAPK (Thr202/Tyr204) phosphorylation, stimulation (fold) relative to the control [1, 3] [fold] | PDK-1 (Ser241) phosphorylation, stimulation (fold) relative to the control (PDK-1 (Ser241); [2]) [fold] | PDK-1 (Ser241) phosphorylation, stimulation (fold) relative to the control (PDK-1 (Ser241); [3]) [fold] | phosphorylation of MAPK, stimulation (fold) relative to the control (Table 6) [1, 4] [fold] | phosphorylation of MAPK, stimulation (fold) relative to the control (Table 6) [1, 5] [fold] | effect of the inhibitor on insulin- and BWE-stimulated phosphorylation of MAPK [1] | also measured
COc1ccc2c(c1)CC[C@@H]1[C@@H]2CC[C@]2(C)[C@@H](NCCCCCCN3C(=O)C=CC3=O)CC[C@@H]12 [U73] | 0.12 | 0.99 | 8.6 | 13.4 | 0.49 | 2.30 | – | – | – | –
COc1ccc2c(c1)c1c3c(c4c5ccccc5n(C)c4c1n2CC(O)CN(C)C)C(=O)NC3=O (stereo not shown) [Go7874] | – | – | – | – | – | – | 3.10 | 2.60 | – | –
Cn1c2ccccc2c2c3c(c4c5ccccc5n(CCC#N)c4c21)CNC3=O [Go6976] | – | – | – | – | – | – | 4.32 | 4.68 | – | –
N#C/C(=C/c1ccc(O)c(O)c1)C(=O)NCc1ccccc1 [AG490] | 0.16 | 0.13 | 12.9 | 16.4 | 0.89 | 1.91 | – | – | – | –
1-butanol | – | – | – | – | – | – | – | – | required for stimulation of MAPK by insulin and the BWE | effect of the inhibitor on insulin-stimulated glucose uptake (FIG. 23) (H4IIE cells): decreased insulin-stimulated glucose uptake although the effect was not significant
CC(C)(C)c1cc(C=C(C#N)C#N)cc(Br)c1O [AG1024] | – | 0.26 | – | 16.74 | – | 2.30 | – | – | – | –
Cc1ccc(-c2nn(C(C)(C)C)c3ncnc(N)c23)cc1 [PP1] | – | – | – | – | – | – | – | – | required for stimulation of MAPK by the BWE only | –
C[C@H]1CCC/C=C/[C@@H]2C[C@H](O)C[C@H]2[C@H](O)/C=C/C(=O)O1 [brefeldin, Brefeldin A] | – | – | – | – | – | – | – | – | not involved in this process | –
O=c1cc(N2CCOCC2)oc2c(-c3ccccc3)cccc12 [LY294002] | 0.08 | 0.22 | 13.1 | 10.4 | 0.61 | 1.40 | – | – | – | –
CC(=O)c1c(O)c(C)c(O)c(Cc2c(O)c3c(c(C(=O)/C=C/c4ccccc4)c2O)OC(C)(C)C=C3)c1O [Rottlerin] | – | – | – | – | – | – | 3.85 | 2.46 | – | –
